Results: ChEMBL document CHEMBL3879898, “Substituted pyrazolyl compounds for the treatment of inflammationantiinflammatory agents; rheumatic diseases; anticancer agents” (2007)

These compounds were tested against T1, Inhibitor of nuclear factor kappa-B kinase subunit beta (Homo sapiens, UniProt O14920) (assay: Inhibition of human recombinant C-terminal FLAG-epitope-tagged IKK2 expressed in baculovirus infected insect cells using biotinylated IkappaBalpha peptide as substrate in presence of [gamma-33P]-ATP after 30 mins by resin-based scintillation counting method).
T1 sequence (O14920 whole entry): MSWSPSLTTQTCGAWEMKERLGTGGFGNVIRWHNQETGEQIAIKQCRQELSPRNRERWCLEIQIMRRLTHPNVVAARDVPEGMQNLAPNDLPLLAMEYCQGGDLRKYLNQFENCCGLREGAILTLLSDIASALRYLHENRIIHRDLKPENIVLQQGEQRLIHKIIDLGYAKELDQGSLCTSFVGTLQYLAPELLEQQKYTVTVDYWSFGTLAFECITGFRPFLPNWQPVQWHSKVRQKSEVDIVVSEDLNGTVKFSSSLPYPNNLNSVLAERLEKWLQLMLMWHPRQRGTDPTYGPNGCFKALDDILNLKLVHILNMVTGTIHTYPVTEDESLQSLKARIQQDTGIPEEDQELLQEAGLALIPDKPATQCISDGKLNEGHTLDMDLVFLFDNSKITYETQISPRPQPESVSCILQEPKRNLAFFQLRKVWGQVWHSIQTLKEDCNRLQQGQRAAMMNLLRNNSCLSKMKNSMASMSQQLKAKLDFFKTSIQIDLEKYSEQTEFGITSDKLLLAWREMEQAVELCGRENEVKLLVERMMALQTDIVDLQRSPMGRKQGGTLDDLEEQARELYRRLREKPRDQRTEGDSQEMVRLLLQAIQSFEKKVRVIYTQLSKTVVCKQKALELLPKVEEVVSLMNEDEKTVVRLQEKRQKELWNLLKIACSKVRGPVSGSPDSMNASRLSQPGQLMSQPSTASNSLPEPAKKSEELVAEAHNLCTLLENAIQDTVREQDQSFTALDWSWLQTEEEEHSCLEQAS

Row | Structure (SMILES) | IC50 [µM]
1 | CC(=O)N1Cc2c(C(N)=O)nn(-c3ccc(F)cc3)c2-c2cc(NC(=O)c3cccnc3Cl)ccc21 | < 1
2 | NC(=O)c1nn(-c2ccc3c(c2)OCO3)c2c1COc1ccc(NC(=O)c3cccnc3Cl)cc1-2 | ≤ 1
3 | CC(=O)N1Cc2c(C(N)=O)nn(-c3ccc4c(c3)OCO4)c2-c2cc(NC(=O)c3cccnc3Cl)ccc21 | < 1
